Laboratory results taken from patent US11185077B2, “Attractants for rodents” (priority 2016, dated 2021).

Test system: wild rats
Experiment: Field experiments with paired trap boxes: trap captures of wild rats
Format: in vivo, rat
Details: Experiment 16, 4 μg synthetic androstenone
Description: Four field experiments were run in Vancouver B.C. to evaluate the effect of synthetic androstenone and synthetic testosterone on captures of female wild mice and rats in combination with species-specific male sex pheromone blend. Experimental replicates were set up along the interior and exterior walls of buildings as depicted in FIG. 7. Experiment 15 evaluated captures of wild mice in trap boxes baited with high-levels of androstenone; Experiment 16 evaluated captures of wild rats in traps baited with high-levels of androstenone; Experiment 17 evaluated captures of wild mice in traps baited with low-levels of testosterone; and Experiment 18 evaluated captures of wild mice in traps baited with low-levels of androstenone. Experiment 15 was run from Feb. 4, 2016 to Apr. 14, 2016. Experiment 16 was run from Feb. 26, 2016 to Sep. 19, 2016. Experiments 17 and 18 were run in parallel from Jun. 2, 2016 to Sep. 8, 2016.
Each replicate of Experiments 15 to 18 consisted of a pair of trap boxes (Mice: PROTECTA® Mouse, Bell Laboratories Inc., Madison, Wis. 53704, USA; Rats: PROTECTA® Sidekick™; Bell Laboratories Inc., Madison, Wis. 53704), with 50-cm spacing between boxes in each pair, and at least 2 m between pairs. Each trap box contained an armed snap trap (1, Mice: Victor® Easy Set® Mouse Trap; Rats: Victor® Easy Set® Rat Trap; Woodstream Corp, Lititz, Pa. 17543, USA) baited with a cereal-based food bait and a scintillation vial (2) containing synthetic sex pheromone blends. Each box in each pair also contained a treatment stimulus that consisted of a piece of Whatman #1 filter paper (3a) that by random assignment was treated with: 4 μg of synthetic androstenone dissolved in 50 μl ether (Experiments 15 and 16); 750 μg of synthetic testosterone dissolved in 50 μl ether (Experiment 17); or 750 μg of synthetic androstenone dissolved in 50 μl ether (Experiment 18). […]
Experiments 19 and 20 evaluated the effect of synthetic blends of progesterone and estradiol (estrogen) on captures of wild mice (Experiment 19) and wild rats (Experiment 20) in the field. […]

For `C[C@]12CCC(=O)C[C@@H]1CC[C@@H]1[C@@H]2CC[C@]2(C)C=CC[C@@H]12` [androstenone, 5α-androst-16-en-3-one], the “captures of juvenile and adult male rats” value was “no significant effect”, the “captures of juvenile female rats” value was “no significant effect” and the “captures of adult female rats vs control boxes” value (with food bait and male rat sex pheromone blend) was “significantly more”.
